Laboratory results from patent publication US20230348426A1, “OXOPYRROLIDINE FPR2 AGONISTS” (Bristol-Myers Squibb Company, priority 2020, published 2023).
pEC50: −log10 of the molar value.

How the values were obtained:
[1] = target: human FPR1 (Homo sapiens (Human), UniProt P21462); experiment: FPR1 cyclic adenosine monophosphate (cAMP) assay; type: cell-based; settings: CHO cells overexpressing human FPR1; forskolin 10 µM; inhibition of cAMP production; read-out: hFPR1 cAMP EC50
Procedure, shortened: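 Human FPR1-expressing CHO cells were used at 4,000 per well, with compound at 0.020 nM–100 µM in 1% DMSO. Potency came from a 4-parameter logistic fit.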

[2] = target: human FPR2 (Homo sapiens (Human), UniProt P25090); experiment: FPR2 cyclic adenosine monophosphate (cAMP) assay; type: cell-based; settings: CHO cells overexpressing human FPR2; forskolin 5 µM; inhibition of cAMP production; read-out: hFPR2 cAMP2 EC50
Procedure, shortened: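 Inhibition of forskolin-driven (5 µM) cAMP, with 200 µM IBMX, measured in human FPR2-expressing CHO cells, 2,000 per well, 30 min at room temperature; compounds tested 0.020 nM to 100 µM in 1% DMSO. HTRF 665/590 ratio converted to cAMP via calibration curve, then 4-parameter fit.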

Sequence of human FPR2 (P25090 whole entry): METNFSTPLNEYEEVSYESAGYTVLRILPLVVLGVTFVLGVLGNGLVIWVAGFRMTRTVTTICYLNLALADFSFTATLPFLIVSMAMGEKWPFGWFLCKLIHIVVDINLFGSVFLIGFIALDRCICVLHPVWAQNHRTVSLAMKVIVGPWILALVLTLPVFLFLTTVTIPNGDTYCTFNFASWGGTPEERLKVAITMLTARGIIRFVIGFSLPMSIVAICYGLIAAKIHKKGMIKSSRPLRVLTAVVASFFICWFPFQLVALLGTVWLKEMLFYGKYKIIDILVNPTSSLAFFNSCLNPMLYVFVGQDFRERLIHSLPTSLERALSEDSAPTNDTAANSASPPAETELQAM
Sequence of human FPR1 (P21462 whole entry): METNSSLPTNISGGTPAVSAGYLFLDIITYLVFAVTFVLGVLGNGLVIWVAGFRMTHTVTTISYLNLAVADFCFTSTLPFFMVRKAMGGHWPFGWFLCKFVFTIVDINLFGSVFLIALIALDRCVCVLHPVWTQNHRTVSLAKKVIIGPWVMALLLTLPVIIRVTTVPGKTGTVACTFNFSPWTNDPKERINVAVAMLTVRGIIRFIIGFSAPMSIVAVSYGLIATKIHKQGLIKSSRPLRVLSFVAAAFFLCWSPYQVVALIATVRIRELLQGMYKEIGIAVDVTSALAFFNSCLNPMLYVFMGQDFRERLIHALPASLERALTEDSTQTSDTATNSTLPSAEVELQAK

| pEC50 [1] | pEC50 [2] | SMILES |
| --- | --- | --- |
| 7.02 | 8.57 | COc1cc(F)c([C@@H]2CN(c3cccn(C(F)F)c3=O)C(=O)[C@H]2NC(=O)c2ccc(Cl)cc2)c(F)c1 [Example 94] |
| 6.54 | 8.77 | COc1cc(F)c([C@@H]2CN(c3cccn(CC(O)C(F)(F)F)c3=O)C(=O)[C@H]2NC(=O)c2ccc(OC(F)F)cc2)c(F)c1 (single isomer, unassigned) [Example 4] |
| 6.32 | 8.51 | COc1cc(F)c([C@@H]2CN(c3cccn4ccnc34)C(=O)[C@H]2NC(=O)c2ccc(Cl)cc2)c(F)c1 [Example 519] |
| 7.08 | 8.19 | COc1cc(F)c([C@@H]2CN(c3cccnc3OC3CCOC3)C(=O)[C@H]2NC(=O)c2ccc(OC(F)(F)F)cc2)c(F)c1 (some centres unmarked) [Example 235] |
| 8.03 | 8.40 | COc1cc(F)c([C@@H]2CN(c3cccn(CC(O)C(F)(F)F)c3=O)C(=O)[C@H]2NC(=O)c2ccc(OC(F)(F)F)cc2)c(F)c1 (some centres unmarked) [Example 155] |
| 8.15 | 8.41 | COCC(CO)n1cccc(N2C[C@@H](c3ccc(OC)cc3F)[C@H](NC(=O)c3ccc(OC(F)F)cc3)C2=O)c1=O (some centres unmarked) [Example 438] |
| 7.19 | 8.68 | COc1ccc([C@@H]2CN(c3cccn(CC(O)C(F)(F)F)c3=O)C(=O)[C@H]2NC(=O)c2ccc(OC(F)F)cc2)cc1 (some centres unmarked) [Example 644] |
| 5.62 | 8.25 | COc1cc(N2C[C@@H](C)N(C)[C@@H](C)C2)nc(N2C[C@@H](c3c(F)cc(OC)cc3F)[C@H](NC(=O)c3ccc(OC(F)F)cc3)C2=O)c1 [Example 214] |
| 6.34 | 8.41 | COc1cc(F)c([C@@H]2CN(c3ccnc(N4C[C@@H](C)N(C)[C@@H](C)C4)c3C(F)(F)F)C(=O)[C@H]2NC(=O)c2ccc(OC(F)F)cc2)c(F)c1 [Example 152] |
| 7.77 | 8.38 | COCCN1CCC(N2C[C@@H](c3c(F)cc(OC)cc3F)[C@H](NC(=O)c3ccc(OC(F)(F)F)cc3)C2=O)C1=O (some centres unmarked) [Example 353] |
| 6.46 | 8.57 | COc1cc(F)c([C@@H]2CN(c3cccn(CCN(C)C)c3=O)C(=O)[C@H]2NC(=O)c2ccc(OC(F)F)cc2)c(F)c1 [Example 97] |
| 8.70 | 8.29 | Cc1ccn(CC(F)F)c(=O)c1N1C[C@@H](c2ccc(Cl)cc2)[C@H](NC(=O)c2ccc(OC(F)(F)F)cc2)C1=O [Example 443] |
| 5.82 | 8.74 | COc1cc(F)c([C@@H]2CN(c3cncn(CC(C)O)c3=O)C(=O)[C@H]2NC(=O)c2ccc(OC(F)F)cc2)c(F)c1 (some centres unmarked) [Example 467] |
| 8.89 | 8.28 | COc1cc(F)c([C@@H]2CN(c3c(C)ccn(CC4CC4)c3=O)C(=O)[C@H]2NC(=O)c2ccc(OC(F)F)cc2)c(F)c1 [Example 195] |
| 6.14 | 8.92 | COc1cc(F)c([C@@H]2CN(c3cccn4cc(C(F)(F)F)nc34)C(=O)[C@H]2NC(=O)c2ccc(Cl)cc2)c(F)c1 [Example 497] |
| 9.15 | 8.16 | COCC(C(=O)N(C)C)n1ccc(C)c(N2C[C@@H](c3c(F)cc(OC)cc3F)[C@H](NC(=O)c3ccc(OC(F)(F)F)cc3)C2=O)c1=O (some centres unmarked) [Example 248] |
| 6.44 | 8.03 | COc1cc(F)c([C@@H]2CN(c3cccnn3)C(=O)[C@H]2NC(=O)c2ccc(OC(F)F)cc2)c(F)c1 [Example 300] |

The next lines start with the compound.

| SMILES | pEC50 [1] | pEC50 [2] |
| --- | --- | --- |
| COc1cc(F)c([C@@H]2CN(c3ccnc(N4C[C@@H]5C[C@H]4CN5C)c3C(F)(F)F)C(=O)[C@H]2NC(=O)c2ccc(OC(F)F)cc2)c(F)c1 [Example 65] | 6.74 | 8.77 |
| COc1cc(F)c([C@@H]2CN(c3c(C(F)(F)F)ccn(C)c3=O)C(=O)[C@H]2NC(=O)c2ccc(Cl)cc2)c(F)c1 [Example 337] | 5.37 | 7.77 |
| COCC(CO)n1ccc(C)c(N2C[C@@H](c3ccc(OC)cc3)[C@H](NC(=O)c3ccc(OC(F)(F)F)cc3)C2=O)c1=O (some centres unmarked) [Example 564] | 9.30 | 8.44 |
| COc1ccc([C@@H]2CN(c3c(C)ccn(CCO)c3=O)C(=O)[C@H]2NC(=O)c2ccc(Cl)cc2)c(F)c1 [Example 394] | 7.96 | 8.72 |
| COc1cc(F)c([C@@H]2CN(c3c(C)ccn(C4CC4)c3=O)C(=O)[C@H]2NC(=O)c2ccc(OC(F)(F)F)cc2)c(F)c1 [Example 352] | 8.52 | 8.32 |
| O=C(N[C@@H]1C(=O)N(c2cccn(CC(O)C(F)(F)F)c2=O)C[C@H]1c1ccc(Cl)cc1)c1ccc(OC(F)(F)F)cc1 (some centres unmarked) [Example 608] | 8.38 | 8.39 |
| COc1cc(F)c([C@@H]2CN(c3c(C)ccn(CCS(C)(=O)=O)c3=O)C(=O)[C@H]2NC(=O)c2ccc(OC(F)F)cc2)c(F)c1 [Example 470] | 8.10 | 8.72 |
| CC(O)Cn1cccc(N2C[C@@H](c3ccc(Cl)cc3)[C@H](NC(=O)c3ccc(OC(F)(F)F)cc3)C2=O)c1=O (some centres unmarked) [Example 439] | 8.15 | 8.26 |
| COc1cc(F)c([C@@H]2CN(c3cccc(C4=CNCCC4)n3)C(=O)[C@H]2NC(=O)c2ccc(OC(F)F)cc2)c(F)c1 [Example 500] | 6.15 | 8.66 |
| COc1cc(F)c([C@@H]2CN(c3ccc(C(=O)O)n(CCO)c3=O)C(=O)[C@H]2NC(=O)c2ccc(OC(F)(F)F)cc2)c(F)c1 [Example 703] | 7.00 | 7.24 |
| COc1ccc([C@@H]2CN(c3c(C)ccn(C4CCOC4)c3=O)C(=O)[C@H]2NC(=O)c2ccc(OC(F)(F)F)cc2)cc1 (some centres unmarked) [Example 704] | 9.00 | 8.62 |
| COc1cc(F)c([C@@H]2CN(c3ncccc3C(F)(F)F)C(=O)[C@H]2NC(=O)C2CCc3cc(OC)ccc3C2)c(F)c1 (some centres unmarked) [Example 349] | 5.26 | 6.24 |
| COc1cc(F)c([C@@H]2CN(c3nc(C4CCN(CCO)CC4)ccc3F)C(=O)[C@H]2NC(=O)c2ccc(OC(F)F)cc2)c(F)c1 [Example 590] | 5.80 | 8.72 |
| COCC(C(=O)N(C)C)n1cccc(N2C[C@@H](c3c(F)cc(OC)cc3F)[C@H](NC(=O)c3ccc(OC(F)F)cc3)C2=O)c1=O (some centres unmarked) [Example 92] | 8.44 | 8.59 |
| COCC(CO)n1cccc(N2C[C@@H](c3c(F)cc(OC)cc3F)[C@H](NC(=O)c3ccc(OC(F)F)cc3)C2=O)c1=O (some centres unmarked) [Example 142] | 7.06 | 8.44 |
| COc1cc(F)c([C@@H]2CN(c3cccc(N4C[C@@H](C)N(C)[C@@H](C)C4)n3)C(=O)[C@H]2NC(=O)c2ccc(OC(F)F)cc2)c(F)c1 [Example 48] | 6.03 | 8.96 |
| CCn1cccc(N2C[C@@H](c3c(F)cc(OC)cc3F)[C@H](NC(=O)c3ccc(C)cc3)C2=O)c1=O [Example 215] | 7.39 | 8.25 |
| COc1cc(F)c([C@@H]2CN(c3cncn(C4CCNC4)c3=O)C(=O)[C@H]2NC(=O)c2ccc(Cl)cc2)c(F)c1 (some centres unmarked) [Example 710] | 6.31 | 8.40 |
| COc1cc(F)c([C@@H]2CN(c3cccn4cc(C)nc34)C(=O)[C@H]2NC(=O)c2ccc(Cl)cc2)c(F)c1 [Example 493] | 6.57 | 8.66 |
| COCC(CO)n1ccc(C)c(N2C[C@@H](c3c(F)cc(OC)cc3F)[C@H](NC(=O)c3ccc(OC(F)(F)F)cc3)C2=O)c1=O (some centres unmarked) [Example 427] | 8.70 | 8.36 |
